35 compounds from patent publication US9944589B2, “Cycloproplyamine derivatives useful as inhibitors of histone demethylases KDM1A” (Istituto Europeo de Oncologia S.r.L., priority 2012, dated 2018) can be followed below.

Where a name gives a salt, the structure may show the parent alone. Read-outs that look alike come from different tables or passages of the source.

The target in this experiment is T1, human recombinant KDM1A (LSD1)/CoRest (Homo sapiens, UniProt O60341).
T1 construct: made in house; host or cells: E. coli
Kind of experiment: Assay of enzyme inhibition of KDM1A (LSD1), Amplex UltraRed/peroxidase coupled. It counts as biochemical. As to conditions: 15 min preincubation, 4.5 μM mono-methylated H3-K4 peptide, range classes. As to the method:
The experiments were performed using a mono-methylated H3-K4 peptide containing 21 amino acids (custom synthesis done by Thermo Scientific) as substrate and in a 50 mM TRIS, pH 8, 0.05 mg/ml BSA buffer.
The demethylase activity was estimated under aerobic conditions and at RT by measuring the release of H2O2 produced during the catalytic process by the Amplex® UltraRed detection system coupled with peroxidase assay. Briefly, a fixed amount of KDM1A/CoRest complex was incubated at RT for 15 minutes in the absence and/or the presence of various concentrations of inhibitor (e.g. from 0 to 100 μM, depending on the inhibitor strength) and of Amplex® UltraRed detection system coupled with peroxidase assay. The inhibitors were tested twice in duplicates at each concentration. […] The conversion of the Amplex® Ultra Red reagent to resorufin was monitored in continuous by fluorescence (excitation at 540 nm, emission at 590 nm) using a microplate reader (Infinite 200, Tecan). Arbitrary units were used to measure the level of H2O2 produced in the absence and/or in the presence of inhibition. The maximum demethylase activity of KDM1A/CoRest was obtained in the absence of inhibitors and corrected for background fluorescence in the absence of KDM1A/CoRest. The IC50 was calculated using GraphPad Software.

[1] abbreviates: read-out: IC50 [μM], KDM1A inhibition assay.
[2] abbreviates: IC50 [μM], KDM1A inhibition assay.

The term IC50 denotes the point on the concentration scale where inhibition reaches its midpoint. Turning to `CC(C)[C@@]1(N)C[C@H]1c1ccccc1` (relative stereo) [Example A-7, trans-1-isopropyl-2-phenyl-cyclopropanamine hydrochloride], the IC50 under setting [1] fell in the range of 1 to 5 µM.

As to `CC[C@@]1(N)C[C@H]1c1ccc(F)cc1` (relative stereo) [Example A-16, trans-1-ethyl-2-(4-fluorophenyl)cyclopropanamine hydrochloride], under setting [1], the IC50 lay within 1 to 5 µM.

On to `CC[C@@]1(N)C[C@H]1c1ccc(Cl)cc1` (relative stereo) [Example A-17, trans-1-ethyl-2-(4-chlorophenyl)cyclopropanamine; hydrochloride], for which the IC50 under setting [1] fell in the range of 0.1 to 1 µM.

Regarding `CC[C@@]1(N)C[C@H]1c1cccc(C(F)(F)F)c1` (relative stereo) [Example A-18, trans-1-ethyl-2-[3-(trifluoromethyl)phenyl]cyclo-propanamine hydrochloride], the IC50 under setting [1] was in the range of 0.1 to 1 µM.

Consider `CC[C@@]1(N)C[C@H]1c1ccc(C(F)(F)F)cc1` (relative stereo) [Example A-19, trans-1-ethyl-2-[4-(trifluoromethyl)phenyl]cyclo-propanamine hydrochloride], for which the half-inhibitory concentration (IC50) under setting [1] was 0.1 to 1 µM.

As for `CC[C@@]1(N)C[C@H]1c1cccc(F)c1` (relative stereo) [Example A-20, trans-1-ethyl-2-(3-fluorophenyl)cyclopropanamine hydrochloride], under setting [2], the IC50 is below 0.1 µM.

Regarding `CC[C@@]1(N)C[C@H]1c1cccc(Cl)c1` (relative stereo) [Example A-21, trans-1-ethyl-2-(3-chlorophenyl)-cyclopropanamine hydrochloride], the IC50 under setting [2] is below 0.1 µM.

For the compound `CC[C@@]1(N)C[C@H]1c1cccc(Br)c1` (relative stereo) [Example A-22, trans-1-ethyl-2-(3-bromophenyl)-cycloproanamine hydrochloride], the IC50 under setting [2] is below 0.1 µM.

Regarding `CC[C@@]1(N)C[C@H]1c1cccc(OC)c1` (relative stereo) [Example A-23, trans-1-ethyl-2-[3-methoxyphenyl]cyclopro-panamine hydrochloride], the IC50 under setting [1] lay in the range of 0.1 to 1 µM.

As to `CC[C@@]1(N)C[C@H]1c1ccccc1F` (relative stereo) [Example A-25, trans-1-ethyl-2-(2-fluorophenyl)cyclopropanamine hydrochloride], under setting [1], the IC50 was in the range of 0.1 to 1 µM.

Take `CC[C@@]1(N)C[C@H]1c1ccccc1Cl` (relative stereo) [Example A-26, trans-1-ethyl-2-(2-chlorophenyl)-cyclopropanamine hydrochloride]: under setting [1], the IC50 lay in the range of 0.1 to 1 µM.

On to `CC[C@@]1(N)C[C@H]1c1ccccc1Br` (relative stereo) [Example A-27, trans-1-ethyl-2-(2-bromophenyl)-cyclopropanamine hydrochloride], for which the IC50 under setting [1] was in the range of 0.1 to 1 µM.

As to `CC[C@@]1(N)C[C@H]1c1ccc(NC(=O)c2cccc(-c3ccccc3)c2)cc1` (relative stereo) [Example A-35], under setting [1], the IC50 was below 0.1 µM.

For `CC[C@@]1(N)C[C@H]1c1ccc(NC(=O)Cc2ccccc2)cc1` (relative stereo) [Example A-39, N-[4-[(trans-2-amino-2-ethyl-cyclopropyl]phenyl]-2-phenyl-acetamide hydrochloride], the IC50 under setting [1] was below 0.1 µM.

With `CC[C@@]1(N)C[C@H]1c1cccc(N=[N+]=[N-])c1` (relative stereo) [Example A-49, trans-2-(3-Azidophenyl)-1-ethyl-cyclopropanamine hydrochloride], the IC50 under setting [1] was below 0.1 µM.

On to `CC[C@@]1(N)C[C@H]1c1ccc(Br)c(F)c1` (relative stereo) [Example A-50, trans-2-(4-bromo-3-fluoro-phenyl)-1-ethyl-cyclopropanamine hydrochloride], for which the IC50 under setting [2] was below 0.1 µM.

As for `N[C@@]1(CCc2ccccc2)C[C@@H]1c1cccc(Br)c1` (relative stereo) [Example A-51, trans 2-(3-bromophenyl)-1-phenethyl-cyclopropanamine hydrochloride], the IC50 under setting [1] was below 0.1 µM.

`N[C@]1(Cc2ccc3ccccc3c2)C[C@H]1c1ccc(F)cc1` (relative stereo) [Example A-54, trans-2-(4-fluorophenyl)-1-(2-naphthylmethyl)cyclo-propanamine hydrochloride]: under setting [1], the IC50 fell in the range of 0.1 to 1 µM.

`N[C@]1(Cc2ccc3ccccc3c2)C[C@H]1c1ccc(Cl)cc1` (relative stereo) [Example A-55, trans-2-(4-chlorophenyl)-1-(2-naphthylmethyl)cyclo-propanamine hydrochloride]: the IC50 under setting [1] fell in the range of 0.1 to 1 µM.

Consider `N[C@]1(Cc2ccc3ccccc3c2)C[C@H]1c1cccc(Cl)c1` (relative stereo) [Example A-56, trans-2-(3-chlorophenyl)-1-(2-naphthylmethyl)cyclo-propanamine hydrochloride], for which the IC50 under setting [1] lay within 0.1 to 1 µM.

In the case of `N[C@]1(Cc2ccc3ccccc3c2)C[C@H]1c1cccc(Br)c1` (relative stereo) [Example A-57, trans-2-(3-bromophenyl)-1-(2-naphthylmethyl)cyclo-propanamine hydrochloride], under setting [1], the IC50 fell in the range of 0.1 to 1 µM.

Take `N[C@]1(CCc2ccccc2)C[C@H]1c1ccc(Cl)cc1` (relative stereo) [Example A-58, trans-2-(4-chlorophenyl)-1-phenethyl-cyclopropanamine hydrochloride]: the IC50 under setting [1] was below 0.1 µM.

`N[C@]1(CCc2ccccc2)C[C@H]1c1ccc(F)cc1` (relative stereo) [Example A-59, trans-2-(4-fluorophenyl)-1-phenethyl-cyclopropanamine hydrochloride]: the IC50 under setting [1] fell in the range of 0.1 to 1 µM.

For the compound `N[C@]1(Cc2ccccc2)C[C@H]1c1ccc(F)cc1` (relative stereo) [Example A-60, trans-1-benzyl-2-(4-fluorophenyl)cyclo-propanamine], under setting [1], the IC50 fell in the range of 0.1 to 1 µM.

Turning to `N[C@]1(Cc2ccccc2)C[C@H]1c1ccc(Cl)cc1` (relative stereo) [Example A-61, trans-1-benzyl-2-(4-chlorophenyl)cyclo-propanamine hydrochloride], the IC50 under setting [1] is 0.1 to 1 µM.

On to `N[C@]1(CCc2ccccc2)C[C@H]1c1ccc(Br)cc1` (relative stereo) [Example A-62, trans 2-(4-bromophenyl)-1-phenethyl-cyclopropanamine 2,2,2-trifluoroacetic acid], for which the IC50 under setting [1] lay in the range of 0.1 to 1 µM.

On to `CC[C@@]1(N)C[C@H]1c1ccc(NC(=O)c2ccc(-c3ccccc3)c(NC3CCN(C)CC3)c2)cc1` (relative stereo) [Example A-66, N-[4-(trans-2-amino-2-ethyl-cyclopropyl)phenyl]-3-[(1-methyl-4-piperidyl)amino]-4-phenyl-benzamide dihydrochloride], for which, under setting [1], the IC50 was below 0.1 µM.

Consider `CC[C@@]1(N)C[C@H]1c1ccc(NC(=O)Cc2ccc([N+](=O)[O-])cc2)cc1` (relative stereo) [Example A-69, N-[4-trans-[2-amino-2-ethyl-cyclopropyl]phenyl]-2-(4-nitrophenyl) acetamide hydrochloride], for which the IC50 under setting [1] was below 0.1 µM.

On to `CC[C@@]1(N)C[C@H]1c1cccc(NC(=O)c2ccccc2)c1` (relative stereo) [Example A-93, N-[3-[trans-2-amino-2-ethyl-cyclopropyl]phenyl] benzamide hydrochloride], for which the half-inhibitory concentration (IC50) under setting [1] was 0.1 to 1 µM.

In the case of `CC[C@@]1(N)C[C@H]1c1ccc(NC(=O)Cc2cccc3ccccc23)c(F)c1` (relative stereo) [Example A-94, N-[4-[trans-2-amino-2-ethyl-cyclopropyl]-2-fluoro-phenyl]-2-(1-naphthyl) acetamide hydrochloride], the IC50 under setting [1] was below 0.1 µM.

As to `CC[C@@]1(N)C[C@H]1c1ccc(NC(=O)c2ccc(N3CCN(C)CC3)cc2)c(F)c1` (relative stereo) [Example A-96, N-[4-[trans-2-amino-2-ethyl-cyclopropyl]-2-fluoro-phenyl]-4-(4-methylpiperazin-1-yl)benzamide 2,2,2-trifluoroacetic acid], the IC50 under setting [1] lay in the range of 0.1 to 1 µM.

Take `CC[C@@]1(N)C[C@H]1c1ccc(NC(=O)c2ccc(C3CCN(C)CC3)cc2)cc1` (relative stereo) [Example A-100, N-[4-[trans-2-amino-2-ethyl-cyclopropyl]phenyl]-4-(1-methyl-4-piperidyl)benzamide 2,2,2-trifluoroacetic acid]: the concentration for half-maximal inhibition (IC50) under setting [1] is below 0.1 µM.

On to `CC[C@@]1(N)C[C@H]1c1ccc(NC(=O)c2ccc(-c3ccncc3)cc2)cc1` (relative stereo) [Example A-102, N-[4-(trans-2-amino-2-ethyl-cyclopropyl]phenyl)-4-(4-pyridyl) benzamide dihydrochloride], for which the IC50 under setting [1] was below 0.1 µM.

On to `N[C@]1(c2ccccc2)C[C@H]1c1ccc(NC(=O)c2cccc(Cl)c2)cc1` (relative stereo) [Example A-103, N-[4-(trans-2-amino-2-phenyl-cyclopropyl]phenyl]-3-chloro-benzamide hydrochloride], for which, under setting [1], the IC50 was below 0.1 µM.

Take `N[C@]1(c2ccccc2)C[C@H]1c1ccc(NC(=O)Cc2cccc3ccccc23)cc1` (relative stereo) [Example A-104, N-[4-(trans-2-amino-2-phenyl-cyclopropyl)phenyl]-2-(1-naphthyl) acetamide hydrochloride]: under setting [1], the IC50 was below 0.1 µM.
